Assay results taken from patent US20210380952A1, “Method to Produce Virus in Cultured Cells Supplemented With Alpha-Ketoglutarate” (THE TRUSTEES OF PRINCETON UNIVERSITY, priority 2012, published 2021).
Like-named read-outs stand apart in the source and are kept apart here.

Tests used:
[1] = tested on: MRC5 cells; test: Cytotoxicity evident upon visual inspection of treated infected cells; type: cell-based, human; conditions: 100 μM fatty acid; VZV-infected MRC5 cells
[2] = tested on: AD169 strain of HCMV; type: cell-based, human cytomegalovirus; conditions: for HCMV yield, fold change relative to no treatment (NT): MRC5, 0.5 IU/cell, 96 h after infection
Description: Cells were infected with the AD169 strain of HCMV at a multiplicity of 0.5 infectious units/cell, and immediately following a 2-hour adsorption period, cells were fed with medium (Dulbecco's Modified Eagle Medium, DMEM) containing 10% fetal calf serum plus various fatty acids, cholesterol and carbonyl scavenging compound. At 96 hours post infection, infectious virus in the medium was assayed by fluorescent focus assay using antibody to the HCMV IE1 protein.
Briefly, About 90% confluent MRC5 human fibroblasts were infected with HCMV at a multiplicity of 0.5 IU/cell. Two hours after infection, medium was replaced with fresh medium containing 10% fetal calf serum and either of oleic acid (OA, up to about 100 μM), linoliec acid (LA, up to about 100 μM), a-linolenic acid (LLA, up to about 100 μM), eicosapentaenoic acid (EPA, up to about 75 μM), or docosahexaenoic acid (DHA, up to about 50 μM). The experiment was also performed in the presence of either aminoguanidine (AG, up to about 250 μM) or cholesterol (chol., up to about 13 μM). Virus production at 96 hours after infection was determined by fluorescent focus assay in MRC-5 cells and shown as a fold change relative to no treatment (NT) which was 5×10^5 infectious units. The fold-changes are the average of two independent infections.
Briefly, about 90% confluent MRC5 fibroblasts were infected with HCMV at a multiplicity of 0.5 IU/cell. Two hours after infection, medium was replaced with fresh medium containing 10% fetal calf serum and α-tocopherol (α-T) or aminoguanidine (AG) at indicated concentrations. Virus production at 96 h after infection was determined by fluorescent focus assay in which MRC-5 cells and shown as a fold change relative to no treatment (NT). The fold-changes are the average of two independent infections. Results are set out in FIG. 2.
MRC5 fibroblasts were infected with the AD169 strain of HCMV at a multiplicity of 0.5 infectious units/cell in glutamine/GlutaMAX-free DMEM containing 10% dialyzed FCS. The dialyzed serum was used to completely eliminate the glutamine in the culture medium. The cells received either 2 mM GlutaMAX, which served as a control, or 7 mM α-kg. At 96 hours post infection, infectious virus in the medium was assayed by fluorescent focus assay using antibody to the HCMV IE1 protein.

[3] = tested on: VZV; test: Yield of cell-free VZV from infected MRC5 cells, plaque assay on ARPE-19 cells; type: cell-based, varicella zoster virus; conditions: for VZV yield, fold change relative to no treatment (NT): added 6 hpi; for VZV yield, fold change relative to no treatment (NT) / VZV yield relative to no treatment (NT): MOI 1:50, 72 h; for VZV yield relative to no treatment (NT): 25 μM fatty acid plus 10 μM αT, 6 h after infection, sonicated immediately
Description: For this test, MRC5 cells (passage 20-25) were seeded at a density of 300.000 cell/100 mm culture dish and grown in 15 ml of DMEM containing 10% fetal calf serum plus 2 mM GlutaMAX (GIBCO®, GlutaMAX™) at 35° C. A lipid mixture (LM-1, 1 ml/liter medium, Sigma Aldrich #L5146) was added to the cells either at the time of seeding or 1 day after seeding. Three days later, the culture medium was replaced with 10 ml growth medium containing 50 mM sucrose as a stabilizer. The cells were further incubated for 3 days and growth medium was replaced with fresh medium containing no sucrose. After cells reached confluence, they were infected with VZV by adding infected cells (1 infected cell/50 uninfected cells; infected cells were from a preparation frozen in a solution of 10% DMSO plus 90% fetal calf serum and stored in liquid nitrogen). At the time of infection, the cultures were re-fed with DMEM containing 10% fetal calf serum plus 2 mM glutamax. Arachidonic acid (AA)+alpha-tocopherol (αT) or DHA+αT were added at the indicated times. 72 hours after infection, cells were washed twice with PBS, and incubated in 10 ml of PBS containing 50 mM ammonium chloride for 50 minutes at 4° C. The cells were harvested and frozen in PSGC buffer (Harper et al., Arch Virol 143:1163-70, 1998) at −80° C. Infectious virus was subsequently quantified by plaque assay of sonicated cells on ARPE-19 cells (American Type Culture Collection). Results are set out in FIG. 3.
Briefly, in these repeat experiments, MRC5 cells were infected with VZV at an MOI=1:50. AA, DHA, and αT were added to the cells at 6 hpi as indicated. 72 hours after infection, the cells were harvested into PSGC buffer and frozen at −80° C. for later processing. After thawing, the cells were sonicated and the yield of cell free VZV quantified by standard plaque assay on ARPE-19 cells. Fold change relative to no treatment (NT) is shown. […] The fold-changes are the average of two independent infections.
In brief, MRC5 cells were infected with VZV at an MOI=1:50. Lipid mixture 1(LM-1) was added to the cells immediately after cell seeding. At 6 hours after infection, up to about 100 μM AA or […] was added to cells together with up to about 10 μM αT. 72 hours after infection, the cells were harvested into PSGC buffer and either frozen at −80° C. and sonicated later for the release of virus (frozen cells) or immediately sonicated after harvesting and supernatants containing the cell-free VZV were frozen at −80° C. (frozen sup.) prior to titration. Cell-free VZV yield was quantified by plaque assay on APRE-19 cells. Fold change relative to no treatment (NT) is shown. The numbers above the bars indicate the amount of virus obtained per ml in the corresponding treatment. The results are set out in FIG. 5.
Briefly, MRC5 cells were infected with VZV at an MOI=1:50. Six hours after infection cells were treated with indicated combinations of lipids plus 10 μM αT. Hexacosanoic acid (HSA) and octacosanoic acid (OSA) were dissolved in 20 mg/ml α-cyclodextin (Sigma-Aldrich) in PBS by sonication and added to a solution of 10 mg/ml fatty acid-free BSA (Sigma-Aldrich) in PBS (1:1, v/v) to give a stock concentration of 10 mM for each fatty acid. HSA, OSA, and DHA were used at 25 μM, and AA was used at 25 μM. Two sets of fatty acid concentrations was used for combination treatments: DHA, AA, and HSA was either added at concentrations of 25 μM, 100 μM, and 25 μM (high), or 10 μM, 50 μM, and 10 μM (low), respectively. 72 hours after infection, the cells were harvested into PSGC buffer, sonicated immediately and the yield of cell free VZV quantified by plaque assay on ARPE-19 cells. Fold change relative to no treatment (NT) is shown. The fold-changes are the average of two independent infections.
Briefly, MRC5 cells were grown in DMEM containing 10% fetal calf serum, 2 mM GlutaMAX) at 35° C. as described in the text. […]

[4] = tested on: VZV; test: as above; type: cell-based, varicella zoster virus; conditions: for VZV yield, factor of increase: MOI 1:250, 72 h; for VZV yield relative to no treatment (NT): with 10 μM α-T, 6 h after infection, HSA and DHA 25 μM, AA 100 μM, MOI 1:100, 72 hours post infection
[5] = additive alone in medium from 2 h after infection, OA, LA, LLA up to about 100 μM, EPA 75 μM, DHA 50 μM, AG 250 μM, chol. 13 μM
[6] = fatty acid together with aminoguanidine (up to about 250 μM)
[7] = 25 μM fatty acid, absence of αT

Structure (SMILES): CCCCCCCC/C=C\CCCCCCCC(=O)O [OA, oleic acid]
- Cytotoxicity / cellular toxicity [1]: without causing observable cellular toxicity
- HCMV yield, fold change relative to no treatment (NT) [2, 5]: reduced the yield of HCMV
- HCMV yield, fold change relative to no treatment (NT) [2, 6]: reduced
- VZV production, factor of reduction ([3]; 100 μM): 2

Structure (SMILES): CC/C=C\C/C=C\C/C=C\C/C=C\C/C=C\C/C=C\CCC(=O)O [DHA, docosahexaenoic acid]
- Cytotoxicity / cellular toxicity [1]: toxic in the absence or presence of αT
- HCMV yield, fold change relative to no treatment (NT) [2, 5]: 4.6 fold
- VZV yield, fold change relative to no treatment (NT) [3, 7]: about 1.5 fold

Structure (SMILES): CCCCCCCCCCCCCCCCCCCCCCCCCCCC(=O)O [OSA, octacosanoic acid]
- VZV yield relative to no treatment (NT) [3]: improved virus yields in comparison to no treatment

Structure (SMILES): N=C(N)NN [aminoguanidine]
- HCMV yield, fold change relative to no treatment (NT) [2, 5]: about 2.6 fold

Structure (SMILES): Cc1c(C)c2c(c(C)c1O)CC[C@@](C)(CCC[C@H](C)CCC[C@H](C)CCCC(C)C)O2 [alpha-tocopherol]
- HCMV production relative to no treatment (NT) ([2]; Example 2, FIG. 2, scavenging compound alone from 2 h after infection, MRC5, 96 h): enhances the production of HCMV

Structure (SMILES): COC(=O)CCC(=O)C(=O)OC [α-kg, dimethyl-α-ketoglutarate]
- VZV replication / titers ([4]; 1 mM α-kg in the absence of GlutaMAX, MOI 1:100, 72 h): unable to support virus replication
- VZV replication / titers ([4]; 2.5 mM α-kg in the absence of GlutaMAX, MOI 1:100, 72 h): unable to support virus replication
- VZV yield, fold increase relative to GlutaMAX (NT; 2 mM) ([4]; 7 mM α-kg alone, glutamine/GlutaMAX-free medium, MOI 1:50, added 6 hpi, 72 h): 3.4 fold
- VZV replication, fold enhancement compared to the addition of 2 mM GlutaMAX ([4]; 7 mM α-kg in the absence of GlutaMAX, MOI 1:100, 72 h): 2.8 fold
- VZV yield, fold increase ([4]; 7 mM α-kg in the presence of 2 mM GlutaMAX, MOI 1:100, added 6 h, 72 h): about 2.1 fold
- Concentration required to optimally support the replication of VZV ([4]; MRC5, MOI 1:100, 72 h): > 2.5 mM
- VZV yield, factor of increase ([4]; glutamine-free medium supplemented with dialyzed serum (10% dialyzed FCS)): ~9.7
- VZV yield, factor of increase ([4]; glutamine/GlutaMAX-free medium containing normal serum (10% FCS)): ~3.7 fold
- Production of cell-free HCMV, fold increase relative to 2 mM GlutaMAX control ([2]; 7 mM α-kg replacing glutamine, glutamine/GlutaMAX-free DMEM, 10% dialyzed FCS, 0.5 infectious units/cell, 96 hours post infection): 4.3 fold

Structure (SMILES): CC/C=C\C/C=C\C/C=C\C/C=C\C/C=C\CCCC(=O)O [EPA, eicosapentaenoic acid]
- HCMV yield, fold change relative to no treatment (NT) [2, 5]: 2.5 fold

Structure (SMILES): CC/C=C\C/C=C\C/C=C\CCCCCCCC(=O)O [LLA, α-linolenic acid]
- HCMV yield, fold change relative to no treatment (NT) [2, 5]: about 1.2 fold
- HCMV yield, fold change relative to no treatment (NT) [2, 6]: reduced

Structure (SMILES): CCCCC/C=C\C/C=C\CCCCCCCC(=O)O [LA, linoleic acid]
- HCMV yield, fold change relative to no treatment (NT) [2, 5]: had little effect on the yield
- HCMV yield, fold change relative to no treatment (NT) [2, 6]: reduced

Structure (SMILES): CCCCCCCCCCCCCCCCCCCCCCCCCC(=O)O [HSA, hexacosanoic acid]
- VZV yield relative to no treatment (NT) [4]: elevated the yield of VZV
- VZV yield relative to no treatment (NT) [3]: improved virus yields in comparison to no treatment

Structure (SMILES): CCCCC/C=C\C/C=C\C/C=C\C/C=C\CCCC(=O)O [AA, arachidonic acid]
- VZV yield, fold change relative to no treatment (NT) ([4]; 100 μM fatty acid in the presence of αT, added 6 hpi, MOI 1:50, 72 h): 5 fold
- VZV yield relative to no treatment (NT) [4]: elevated the yield of VZV
- VZV yield, fold change relative to no treatment (NT) ([3]; 25 μM fatty acid in the presence of αT): increased the virus yield
- VZV yield, fold change relative to no treatment (NT) [3, 7]: enhanced the yield of virus
- VZV yield, fold change relative to no treatment (NT) ([3]; 100 μM fatty acid, absence of αT): inhibited virus production

Structure (SMILES): CC(C)CCC[C@@H](C)[C@H]1CC[C@H]2[C@@H]3CC=C4C[C@@H](O)CC[C@]4(C)[C@H]3CC[C@]12C [cholesterol]
- VZV yield, factor relative to no treatment ([4]; 13 μM cholesterol, MOI 1:100, 72 hr after infection): increased the yield of VZV by a factor of about two
- HCMV yield, fold change relative to no treatment (NT) [2, 5]: no effect on HCMV yield
- HCMV yield, effect on the enhancing effects of fatty acids ([2]; cholesterol (up to about 13 μM) together with fatty acids, MRC5, 96 h after infection): did not improve, and in some cases inhibited
